Consider 7 compounds from PubChem BioAssay AID1963862 (Molecular Pharmacology Branch, DTP, NCI, 2024).

SMILES strings stand for the structures. Several values for one entry are separate records, joined by “and”; a condition that tells them apart may be missing. Equal entries are not always repeated.

For orientation: IC50 means the concentration at which inhibition is half-maximal. In general, viability, T/C refers to the result in the treated group divided by that in the control group, in per cent.

The experiment concerns KRAS patient-derived spheroids with HUVEC/MSC, viability. Briefly: Anticancer human tumor 941728-121-R-J1-PDC patient-derived lung adenocarcinoma cell line growth inhibition [KRAS2]. The following applies: for viability, T/C: stronger effect = lower value. Summed up:
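KRAS-mutant tumor cells were grown as spheroids with HUVEC endothelial cells and human MSCs as stroma. Targeted agents were tested alone and with KRAS pathway inhibitors. Doses started at or near clinical Cmax, or 10 microM, descending half-log.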

The mark [1] stands for this setting: curve of first compound, second compound 0.1 µM.
Setting [2] is: curve of first compound, second compound 0.316 µM.
Setting [3] is: curve of first compound, second compound 1 µM.
[4] abbreviates: curve of first compound, second compound 3.16 µM.
The mark [5] stands for this setting: curve of first compound, second compound 10 µM.
[6] abbreviates: second compound 0.1 µM, first compound 0.000316 µM.
The mark [7] stands for this setting: second compound 0.1 µM, first compound 0.001 µM.
[8] abbreviates: second compound 0.1 µM, first compound 0.00316 µM.
[9] abbreviates: second compound 0.1 µM, first compound 0.01 µM.
Where [10] appears, read: second compound 0.1 µM, first compound 0.0316 µM.
The mark [11] stands for this setting: second compound 0.1 µM, first compound 0.1 µM.
Where [12] appears, read: second compound 0.316 µM, first compound 0.000316 µM.
The mark [13] stands for this setting: second compound 0.316 µM, first compound 0.001 µM.
Setting [14] is: second compound 0.316 µM, first compound 0.00316 µM.
Setting [15] is: second compound 0.316 µM, first compound 0.01 µM.
[16] abbreviates: second compound 0.316 µM, first compound 0.0316 µM.
Where [17] appears, read: second compound 0.316 µM, first compound 0.1 µM.
Where [18] appears, read: second compound 1 µM, first compound 0.000316 µM.
The mark [19] stands for this setting: second compound 1 µM, first compound 0.001 µM.
Setting [20] is: second compound 1 µM, first compound 0.00316 µM.
[21] abbreviates: second compound 1 µM, first compound 0.01 µM.
[22] abbreviates: second compound 1 µM, first compound 0.0316 µM.
The mark [23] stands for this setting: second compound 1 µM, first compound 0.1 µM.
Where [24] appears, read: second compound 3.16 µM, first compound 0.000316 µM.
Where [25] appears, read: second compound 3.16 µM, first compound 0.001 µM.
[26] abbreviates: second compound 3.16 µM, first compound 0.00316 µM.
The mark [27] stands for this setting: second compound 3.16 µM, first compound 0.01 µM.
[28] abbreviates: second compound 3.16 µM, first compound 0.0316 µM.
[29] abbreviates: second compound 3.16 µM, first compound 0.1 µM.
Setting [30] is: second compound 10 µM, first compound 0.000316 µM.
The mark [31] stands for this setting: second compound 10 µM, first compound 0.001 µM.
The mark [32] stands for this setting: second compound 10 µM, first compound 0.00316 µM.
Where [33] appears, read: second compound 10 µM, first compound 0.01 µM.
Setting [34] is: second compound 10 µM, first compound 0.0316 µM.
Where [35] appears, read: second compound 10 µM, first compound 0.1 µM.
The mark [36] stands for this setting: compound alone, run of 07/19/2021.
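Further: spheroids exposed to agents for seven days before readout.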

For `Cn1ncnc1[C@H]1c2n[nH]c(=O)c3cc(F)cc(c23)N[C@@H]1c1ccc(F)cc1` + CNCc1ccccc1-c1csc(C(C)Nc2nc(C)nc3cc(OC)c(OC)cc23)c1, the IC50 by setting is: under setting [1], 6.44 nM; under setting [2], less than 0.316 nM; under setting [3], less than 0.316 nM; under setting [4], less than 0.316 nM; under setting [5], less than 0.316 nM. The viability, T/C was 52.8% under setting [6]; 70.3% under setting [7]; 47.4% under setting [8]; 44.4% under setting [9]; 44.3% under setting [10]; 37.2% under setting [11]. Also, the viability, T/C runs as follows: under setting [12], 35.8%; under setting [13], 30.6%; under setting [14], 27.9%; under setting [15], 29.3%; under setting [16], 26.3%; under setting [17], 27.4%. For the same compound, the viability, T/C reads like this: under setting [18], 14.4%; under setting [19], 15.7%; under setting [20], 15.4%; under setting [21], 14.4%; under setting [22], 10.9%; under setting [23], 15.1%. Besides, the viability, T/C is, setting by setting: under setting [24], 0.11%; under setting [25], 0.05%; under setting [26], 0.16%; under setting [27], 0.06%; under setting [28], 0.09%; under setting [29], 0.18%. Besides, the viability, T/C under setting [30] is 0.08%; the viability, T/C under setting [31] was 0.09%; the viability, T/C under setting [32] was 0.08%; the viability, T/C under setting [33] is 0.09%; the viability, T/C under setting [34] is 0.12%; the viability, T/C under setting [35] is 0.16%.

As for `CC(=O)Nc1cccc(-n2c(=O)n(C3CC3)c(=O)c3c(Nc4ccc(I)cc4F)n(C)c(=O)c(C)c32)c1`, the viability, T/C is, setting by setting: (compound 0.0001 µM) 84.8% [middle of 5 runs]; (compound 0.000316 µM) 63.7% [middle of 5 runs]; (compound 0.001 µM) 53.3% [middle of 5 runs]; (compound 0.00316 µM) 49.9% [middle of 4 runs]; (compound 0.01 µM) 47.2% [middle of 5 runs]; (compound 0.0316 µM) 42.3% [middle of 5 runs].

Consider `CC1OCC2(CCN(c3cnc(Sc4ccnc(N)c4Cl)c(N)n3)CC2)C1N` (stereo unspecified), for which the viability, T/C (compound 0.0316 µM) is 71% and 57.9% and 63.9%; the viability, T/C (compound 0.1 µM) was 48.3% [middle of 19 runs]; the viability, T/C (compound 0.316 µM) is 38% [middle of 19 runs]; the viability, T/C (compound 3.16 µM) is 29.8% [middle of 20 runs]. For the same compound, the IC50 is less than 100 nM under setting [36] and 141 nM [middle of 5 runs] (curve of compound).

With `C=CC(=O)N1CCN(c2nc(=O)n(-c3c(C)ccnc3C(C)C)c3nc(-c4c(O)cccc4F)c(F)cc23)C(C)C1` (stereo unspecified), the viability, T/C is 23.2% [middle of 17 runs] (compound 0.1 µM); 22.9% [middle of 17 runs] (compound 0.316 µM); 22.8% [middle of 17 runs] (compound 1 µM); 27.4% [middle of 17 runs] (compound 3.16 µM); 32.9% [middle of 17 runs] (compound 10 µM). Besides, the IC50 reads like this: (compound alone, run of 07/12/2021) less than 100 nM; under setting [36], less than 100 nM; (compound alone, run of 07/26/2021) less than 100 nM.

In the case of `CC(C)NCC(C(=O)N1CCN(c2ncnc3c2C(C)CC3O)CC1)c1ccc(Cl)cc1` (stereo unspecified), the viability, T/C was 92.1% [middle of 5 runs] (compound 0.0316 µM); 90.6% [middle of 5 runs] (compound 0.1 µM); 56.5% [middle of 5 runs] (compound 0.316 µM); 43.8% [middle of 5 runs] (compound 1 µM); 31.9% [middle of 5 runs] (compound 10 µM). For the same compound, the IC50 (curve of compound) is 592 nM [middle of 5 runs].

With `CN(C)C/C=C/C(=O)Nc1cc2c(Nc3ccc(F)c(Cl)c3)ncnc2cc1O[C@H]1CCOC1` + CNCc1ccccc1-c1csc(C(C)Nc2nc(C)nc3cc(OC)c(OC)cc23)c1, the IC50 reads like this: under setting [1], less than 0.316 nM; under setting [2], less than 0.316 nM; under setting [3], less than 0.316 nM; under setting [4], less than 0.316 nM; under setting [5], less than 0.316 nM. Moreover, the viability, T/C runs as follows: under setting [6], 44%; under setting [7], 45.9%; under setting [8], 36.2%; under setting [9], 34.6%; under setting [10], 31.6%; under setting [11], 35.6%. Moreover, the viability, T/C under setting [12] was 32.6%; the viability, T/C under setting [13] is 24.5%; the viability, T/C under setting [14] is 28.5%; the viability, T/C under setting [15] was 23.8%; the viability, T/C under setting [16] is 25.6%; the viability, T/C under setting [17] is 29.9%. Moreover, the viability, T/C is 20.5% under setting [18]; 19.6% under setting [19]; 18.5% under setting [20]; 19.6% under setting [21]; 20.6% under setting [22]; 19.4% under setting [23]. For the same compound, the viability, T/C reads like this: under setting [24], 0.61%; under setting [25], 0.24%; under setting [26], 0.15%; under setting [27], 0.14%; under setting [28], 0.13%; under setting [29], 0.18%. The viability, T/C runs as follows: under setting [30], 0.05%; under setting [31], 0.04%; under setting [32], 0.04%; under setting [33], 0.08%; under setting [34], 0.04%; under setting [35], 0.32%.

As to `COC(=O)c1ccc2c(C(=Nc3ccc(N(C)C(=O)CN4CCN(C)CC4)cc3)c3ccccc3)c(O)[nH]c2c1` + CNCc1ccccc1-c1csc(C(C)Nc2nc(C)nc3cc(OC)c(OC)cc23)c1, the IC50 runs as follows: under setting [1], 1740 nM; under setting [2], less than 31.6 nM; under setting [3], less than 31.6 nM; under setting [4], less than 31.6 nM; under setting [5], less than 31.6 nM. The viability, T/C is, setting by setting: under setting [10], 59.9%; under setting [11], 49.5%; (second compound 0.1 µM, first compound 0.316 µM) 47.1%; (second compound 0.1 µM, first compound 1 µM) 63.4%; (second compound 0.1 µM, first compound 3.16 µM) 42.4%; (second compound 0.1 µM, first compound 10 µM) 35.8%. The viability, T/C is 46.4% under setting [16]; 44.1% under setting [17]; 41.5% (second compound 0.316 µM, first compound 0.316 µM); 35% (second compound 0.316 µM, first compound 1 µM); 9.64% (second compound 0.316 µM, first compound 3.16 µM); 20.3% (second compound 0.316 µM, first compound 10 µM). In addition, the viability, T/C under setting [22] was 22.6%; the viability, T/C under setting [23] is 24.5%; the viability, T/C (second compound 1 µM, first compound 0.316 µM) is 19.5%; the viability, T/C (second compound 1 µM, first compound 1 µM) is 25.6%; the viability, T/C (second compound 1 µM, first compound 3.16 µM) is 3.56%; the viability, T/C (second compound 1 µM, first compound 10 µM) was 5.39%. Further, the viability, T/C is 0.42% under setting [28]; 0.43% under setting [29]; 0.22% (second compound 3.16 µM, first compound 0.316 µM); 0.73% (second compound 3.16 µM, first compound 1 µM); 0.79% (second compound 3.16 µM, first compound 3.16 µM); 0.62% (second compound 3.16 µM, first compound 10 µM). For the same compound, the viability, T/C under setting [34] is 0.47%; the viability, T/C under setting [35] is 0.1%; the viability, T/C (second compound 10 µM, first compound 0.316 µM) is 0.08%; the viability, T/C (second compound 10 µM, first compound 1 µM) was 0.1%; the viability, T/C (second compound 10 µM, first compound 3.16 µM) is 0.11%; the viability, T/C (second compound 10 µM, first compound 10 µM) was 0.15%.
